Test results as given in PMC10229078, “In vitro effects of lapachol and β-lapachone against Leishmania amazonensis” (Brazilian Journal of Medical and Biological Research, 2023).
≈ marks a conversion by molar mass, not a printed value.

Key:
[1] = test system: Leishmania amazonensis promastigotes; assay: Mitochondria membrane potential (ΔΨm), Rh123 flow cytometry; format: cell-based; conditions: for Reduction in ΔΨm: lapachol 76.62 µg/mL, β-lapachone 1.63 µg/mL, H2O2 2 mM; for Variation Index (VI) of Rh123 fluorescence, (MT−MC)/MC: lapachol 76.62 μg/mL, β-lapachone 1.63 μg/mL, PC 2 mM
Method: The ΔΨm was determined using on BD FacsCalibur™ flow cytometer and CellQuest Pro software, with a total of 10.000 events acquired, using a mitochondrial-specific green-fluorescent dye Rh123 ([31]). Briefly, L. amazonensis (2×10^7 parasites/mL) were incubated with lapachol (76.62 µg/mL) and β-lapachone (1.63 µg/mL) for 1, 4, and 24 h at 25°C. After washed with PBS, the parasites were incubated with 5 μg/mL Rh123 for 15 min. After the incubation time, the cells were washed and suspended in PBS for additional incubation of 30 min for analysis. The percentage of fluorescence of Rh123, was determined by the (MT/MC)*100 equation, with MT representing the median fluorescence of the treated parasites and the MC the median fluorescence of negative controls. Alteration in ΔΨm was quantified using an index of variation (IV) obtained by the equation IV = (MT - MC)/MC, where negative IV values correspond to depolarization of the mitochondrial membrane. H2O2 (2 mM) was used as a positive control ([32]).

[2] = test system: L. amazonensis promastigotes; assay: Externalized phosphatidylserine, annexin V-FITC/PI; format: cell-based, Leishmania amazonensis; conditions: lapachol 76.62 µg/mL, β-lapachone 1.63 µg/mL; for Annexin labeling (AnV+, PI-): 4 h; for Annexin labeling (AnV+, PI-), change on longer incubation: 24 h
Method: […] After treatment, the cells were centrifuged (901 g for 10 min) at room temperature and washed in PBS. According to the manufacturer's instructions, annexin V-FITC and PI (Sigma-Aldrich) were added. Data were acquired using the BD FacsCalibur™ flow cytometer (FL1 vs FL2) and CellQuest Pro software, with a total of 10,000 events acquired for analysis of results.

[3] = test system: IL-2, IL-4, IL-6, IFN-γ, TNF-α, IL-17A, IL-10 production in murine macrophages; assay: Cytokine production in supernatant of amastigote assays (CBA Mouse Th1/Th2/Th17 kit); format: cell-based, BALB/c mice; conditions: 24 h; for IL-2, IL-4, IFN-γ, IL-17A, and IL-10 production: macrophages infected with L. amazonensis and treated; for IL-6 levels / TNF-α levels: uninfected and infected treated macrophages, all concentrations tested
Method: For the determination of cytokines, the supernatant of the amastigote assays stored at −80°C was used (MO, macrophages (negative control); MO + L. amazonensis (6 parasites/macrophage); samples treated with lapachol at IC50/2, IC50, and 2× IC50 with L. amazonensis (+) or without (-); the same was repeated for β-lapachone). The supernatant was centrifuged, and a 50 μL aliquot was used to determine cytokine levels (in pg/mL) using the BD Cytometric Bead Array (CBA) Mouse Th1/Th2/Th17 Cytokine kit (BD Life Sciences - Biosciences, USA). The dosage was performed in triplicate and according to the manufacturer's standards. This method is based on a suspension that contains beads, in which encoded fluorescent beads have cytokines that capture antibodies to bind the proteins. The final analysis was performed by flow cytometry using the BD FacsCalibur™ flow cytometer and CellQuest Pro software. The kit allows the measurement of seven distinct populations of Th1, Th2, and Th17 cytokines (IL-2, IL-4, IL-6, IFN-γ, TNF-α, IL-17A, and IL-10) in a single sample.

[4] = test system: L. amazonensis amastigotes
Method: (§1) The activity of lapachol and β-lapachone on intracellular amastigotes was made on peritoneal macrophages (5×10^5 per well). Cells were seeded onto round glass coverslips within 24-well plates in RPMI 1640 medium and incubated for 2 h at 37°C in 5% CO2. After that, the proportion of 6 parasites (L. amazonensis) per macrophage were added, and cultures were incubated for 4 h at 37°C in 5% CO2. Free parasites were removed by washing with RPMI 1640 medium. The infected macrophages were incubated with lapachol (82.28, 41.14, and 20.57 µg/mL) and β-lapachone (3.26, 1.63, and 0.815 µg/mL) for 24 h at 37°C. After the incubation time, the coverslips were removed, washed, stained with Fast Panoptic, and fixed on glass slides with Entellan. […] The experiments were done twice in triplicate, and treated uninfected cells were used as the cytotoxicity control and non-treated infected cells were used as the positive control of infection. The number of intracellular amastigotes was determined by counting 200 macrophages by concentration in an optical microscope (binocular biological microscope, mod. BA310E LED, Motic, Spain). The infection index was calculated by multiplying the percentage of infected macrophages by the number of parasites per macrophages ([29]).

[5] = test system: L. amazonensis (strains MHOM/BR/1989/ BA199); design: method as in ref 23 Guimarães et al.; conditions: 72 h, strain MHOM/BR/1989/BA199, ref 23 Guimarães et al.; cited from earlier work
[6] = test system: amastigotes of L. (V.) braziliensis (MHOM/BR/94/H-3227); design: method as in ref 18 Teixeira et al.; conditions: 50 µg/mL, ref 18 Teixeira et al.; cited from earlier work
[7] = test system: L. amazonensis amastigotes; assay: Activity on intracellular amastigotes in peritoneal macrophages (infection index); conditions: 24 h; for Inhibition of infection rate of amastigotes (infection reduction): vs untreated infected macrophages
Method: as §1

[8] = test system: Leishmania major promastigotes; design: method as in ref 24 Moreno et al.; conditions: 48 h of incubation, ref 24 Moreno et al.; cited from earlier work
[9] = Macrophage cytotoxicity, XTT, J774A.1; conditions: mouse, J774A.1 macrophages
[10] = Leishmania amazonensis, Macrophage, read-out: Inhibition of infection rate of amastigotes (infection reduction)

| Molecule | Reduction in ΔΨm ([1]; 1 h) | Variation Index (VI) of Rh123 fluorescence, (MT−MC)/MC ([1]; 1 h) | Reduction in ΔΨm ([1]; 4 h) | Variation Index (VI) of Rh123 fluorescence, (MT−MC)/MC ([1]; 4 h) | Reduction in ΔΨm ([1]; 24 h) | Variation Index (VI) of Rh123 fluorescence, (MT−MC)/MC ([1]; 24 h) | Annexin labeling (AnV+, PI-) [2] | Annexin labeling (AnV+, PI-), change on longer incubation [2] | IL-2, IL-4, IFN-γ, IL-17A, and IL-10 production [3] | IL-6 levels [3] | TNF-α levels [3] | IC50 [5] | further results |
| --- | --- | --- | --- | --- | --- | --- | --- | --- | --- | --- | --- | --- | --- |
| 4-hydroxy-3-(3-methylbut-2-enyl)naphthalene-1,2-dione [lapachol] | 44% | -0.44 | 69% | -0.69 | 30% | -0.30 | 8.57% | not possible to observe the increase | did not present significant changes | decrease | decrease | 102000 nM | inhibition [4]: 57.6%; Inhibition of the infection rate of amastigotes [6]: 88.8%; Inhibition of infection rate of amastigotes (infection reduction) ([7]; 20.57 µg/mL): 34.95%; Inhibition of infection rate of amastigotes (infection reduction) ([7]; 82.28 µg/mL): 83.11% |
| CC1(C)CCC2=C(O1)c1ccccc1C(=O)C2=O [β-lapachone, 2,2-dimethyl-3,4-dihydrobenzo[h]chromene-5,6-dione] | 15% | -0.15 | 54% | -0.54 | 98% | -0.98 | 9.03% | not possible to observe the increase | did not present significant changes | decrease | decrease | 1390 nM | IC50 [8]: 1500 ± 700 nM; CC50 at 24 h [9]: 3.18 ± 0.04 µg/mL (≈ 13.1 µM); inhibition at 0.815 µg/mL [7, 10]: 80.2%; inhibition at 1.63 µg/mL [7, 10]: 83.2%; inhibition at 3.26 µg/mL [7, 10]: 78.5% |
